Test results from patent US12150940B2, “WASp-protecting small molecules, compositions, methods and uses thereof in the treatment of innate and acquired immune-related disorders or conditions” (BAR ILAN UNIVERSITY, priority 2016, dated 2024).

What was measured:
WIP-WASp interaction = biological target: T1, WIP-WASp interaction (Homo sapiens, UniProt P42768, K230R/R34Q); test: FRET analysis of WIP-WASp interaction in activated T-cells expressing CFP-WASp and YFP-WIP; type: cell-based; settings: anti-CD3 stimulatory coverslips, fixed after 5 min; mean ± SE
T1 construct: expressed in transfected cells
Method: FIG. 13A: Jurkat T cells stably expressing CFP-WASp and YFP-WIP were treated with WASp-binding SMC #6, SMC #30, SMC #33, SMC #34 or control. The cells were then plated on stimulatory coverslips (coated with an anti-CD3 antibody), and fixed after 5 min. Cells were imaged by confocal microscope, and FRET efficiency was measured by the donor-sensitized acceptor emission technology (see Experimental procedures for details).
FIG. 13B: graph summarizing the percentage FRET efficiency in cells plated on the stimulatory coverslips, with the indicated treatment. Data are from four independent experiments. Error bars represent the SE from the mean. P values were calculated by two-tailed Student's t-test.
Spreading assays were performed as previously described (Fried et al, 2014; Barda-Saad 2005). Briefly, T cells (2×10^6 cells/ml) were seeded on the bottom of chambered cover glasses (LabTek) that were pre-coated with anti-CD3 stimulatory monoclonal antibodies (10 μg/ml). The cells were incubated in imaging buffer [RPMI without phenol red containing 10% fetal calf serum (FCS) and 25 mM HEPES] at 37° C., 5% CO2, for the times indicated in the figure legends. Cells were fixed for 25 min with 4% paraformaldehyde in phosphate-buffered saline (PBS) and then were washed three times with PBS.
Double-color FRET was performed as described previously (Barda-Saad et al, 2005; Pauker, 2011, Pauker, 2012). […] The non-FRET components were calculated and removed with calibration curves derived from images of single-labeled cells containing CFP or YFP, as previously described (Barda-Saad et al, 2005). […] Bleed-through components were calculated as a function of the intensity of the expressed fluorescent proteins with data gathered from single-labeled cell lines. By using the intensity measured pixel by pixel through the different filter sets, as well as cross-talk elements that were isolated from the control, single-labeled cells, the measured FRET was corrected and the actual FRET efficiency at every pixel was determined. The relative FRET efficiency (FRETeff) was calculated on a pixel-by-pixel basis with the following equation: FRETeff=FRETcorr/(FRETcorr+donor)×100%, where FRETcorr is the pixel intensity in the corrected FRET image, and donor is the intensity of the corresponding pixel in the appropriate donor channel image. To increase the reliability of the calculations and to prevent low-level noise from distorting the calculated ratio, the inventors excluded pixels below 50 intensity units, as well as saturated pixels from the calculations, and set their intensities to zero. […] The FRET efficiency in the negative control system was measured and calculated in the same manner as that in the main experiment. […]

platelets = test: Platelet intra-cellular calcium concentration (Indo-1-AM); type: cell-based, human; settings: TRAP-6 10 μM, vs solvent
Method: Freshly-isolated human platelets were incubated with either control DMSO or the indicated WASp-binding SMCs, specifically, SMC #6 (FIG. 11A), SMC #30 (FIG. 11B), SMC #33 (FIG. 11C) and SMC #34 (FIG. 11D). Platelets were stimulated with TRAP-6 and calcium levels were measured by spectrofluorometer, as described in Experimental procedures. Data are representative of three independent experiments.
Cells were incubated with 5 μM Indo-1-acetoxymethylester (Indo-1-AM, Teflabs) in Tyrode's buffer at 37° C. for 20 min. The cells were washed once, resuspended in Tyrode's buffer containing 10 mM HEPES and maintained at room temperature for 20 min. The cells were incubated at 37° C. for 5 min before measurements and then stimulated with 10 μM TRAP-6. The Ca^2+ influx was measured by spectrofluorometer using the Synergy 4 Microplate Reader (Bio Tek).
However, following receptor-mediated stimulation, platelets dramatically elevate their intra-cellular calcium concentrations, which in turn serve as signaling cues that evoke platelet effector functions, including platelet spreading, adhesion and aggregation (Varga-Sabo et al, 2009). Therefore, the ability of WASp-protecting SMCs to upregulate intra-cellular calcium accumulation in activated platelets was next tested. Freshly-isolated human platelets were incubated with SMC #6, #30, #33 and #34 or with the solvent (negative control). Following incubation, platelets were stimulated with thrombin receptor activator peptide TRAP-6 (10 μM) and calcium levels were measured by spectrofluorometer, using Indo-1-AM-based calcium assay as described in Experimental procedures.

PBMCs = test: Lymphocyte activation in PBMCs (CD69 and activated LFA-1, flow cytometry); type: cell-based, human; settings: PBMCs stimulated with PMA and Ionomycin, vs control
Method: Figures show 1×10^6 PBMC cells/ml stimulated with PMA and Ionomycin that were treated with DMSO or WASp-binding SMCs. After incubation, the cells were stained with PE-Cy5™-conjugated mouse anti-human CD69 and lymphocyte activation was measured by flow-cytometry as described in the Experimental procedures. Histograms of DMSO versus SMC #6 (FIG. 8A), SMC #30 (FIG. 8B), SMC #33 (FIG. 8C), and SMC #34 (FIG. 8D) are presented and represent three independent experiments.
After incubation, the cells were stained with anti-activated LFA-1 antibody (KIM127), followed by staining with Alexa488-Fluor goat anti-mouse IgG1 secondary antibody, and lymphocyte activation was measured by flow-cytometry as described in the Experimental procedures. Histogram of negative control versus SMC #6 is presented.
PBMCs or Jurkat cells (about 3×10^5 cells) were incubated for 4 h, at 37° C. with 50 ng/ml PMA and 250 ng/ml lonomycin, or 40 ng/ml PMA and 6 μM Ionomycin, respectively, or left untreated. After incubation, the cells were collected and stained with 1 μg/ml anti-active human LFA-1 antibody (purified from KIM127 hybridoma sup, ATCC Cat #: CRL-2838, Sigma) for 30 min in 37° C., followed by staining with Alexa488-Fluor goat anti-mouse IgG1 secondary antibody (Molecular Probes, Cat #: A-21121), 30 min on ice. Cells were then co-stained with PE-Cy5™-conjugated mouse anti-human CD69 (BD Pharmingen, Cat #: 555532) to measure lymphocyte activation.
Lymphocyte activation is a hallmark of a normal immune response. To test whether treatment with WASp-binding SMCs could upregulate lymphocyte activation, freshly-isolated PBMCs were incubated with SMCs or control (solvent only) and stimulated with PMA and lonomycin. The cells were then stained with two different antibodies, which recognize two lymphocyte activation markers, CD69 and an epitope exposed at the active conformation of the integrin LFA-1 (KIM127). Both were detected by flow-cytometry.

Jurkat T cells = test: Lymphocyte migration on ICAM-1/SDF-1α-coated cover glasses; type: cell-based, human; settings: tracked over 20 min, mean ± SE
Method: Jurkat T cells were pretreated with DMSO or the indicated WASp-binding SMCs, and cell migration on ICAM-1/SDF-1α-coated cover glasses was tracked over a 20-min period, as described in Experimental procedures. Each line in FIG. 10A represents one cell. The tracks of five representative cells from each treatment are presented.
Error bars represent the SE from the mean. P values versus DMSO-treated control cells are presented and were calculated by two-tailed Student's t-test.
Approximately 1×10^5 lymphocytes were seeded over chambered coverslips (LabTek) pre-coated with 6 μg/ml ICAM-1 and 2 μg/ml SDF-1α. Cells were incubated at 37° C., 5% CO2 and DIC images were acquired with the Zeiss Observer Z1 inverted microscope every 5 s for 20 min under a 20× objective lens using Zen software. The random movement (Displacement and velocity) of the cells was automatically tracked and analyzed using TrackMate plugin of ImageJ software. An individual trace was assigned to each of the analyzed cells.
A common theme of active lymphocytes is their high migratory ability. This enables them to move within tissues and reach and engage target cells (Burkhardt et al, 2008). Because WASp plays a role in cellular motility, the ability of WASp-binding SMCs to effectively enhance the migration of lymphocytes was tested. The random movement of SMC-treated or control cells was automatically tracked and analyzed using live microscopy, as described in Experimental procedures.

human WASp = biological target: T2, human WASp (Homo sapiens, UniProt P42768, K230R/R34Q); test: MicroScale Thermophoresis (MST) binding, YFP-WASp in HEK 293T cell lysate
T2 construct: expressed in transfected cells; host or cells: HEK 293T, transient transfection; unpurified cell lysate
T2 sequence (P42768 1-502 R34Q/K230R): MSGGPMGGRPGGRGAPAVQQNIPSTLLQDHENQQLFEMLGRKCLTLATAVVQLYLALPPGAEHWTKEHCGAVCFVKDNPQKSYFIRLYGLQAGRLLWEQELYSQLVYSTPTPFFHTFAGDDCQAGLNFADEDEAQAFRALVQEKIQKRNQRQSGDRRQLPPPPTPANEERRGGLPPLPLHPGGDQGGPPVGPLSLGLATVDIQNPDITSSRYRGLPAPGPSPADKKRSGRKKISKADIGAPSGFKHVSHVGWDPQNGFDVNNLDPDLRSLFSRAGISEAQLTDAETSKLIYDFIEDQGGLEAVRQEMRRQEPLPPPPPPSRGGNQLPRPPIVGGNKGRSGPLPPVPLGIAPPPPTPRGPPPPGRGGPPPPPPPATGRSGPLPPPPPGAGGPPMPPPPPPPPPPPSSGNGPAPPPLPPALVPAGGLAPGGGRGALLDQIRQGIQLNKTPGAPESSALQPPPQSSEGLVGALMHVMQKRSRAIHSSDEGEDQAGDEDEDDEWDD
Method: Diluted cell lysates of YFP-WASp/N-WASp/WAVE2-expressing HEK 293T cells were incubated with serially-diluted (100 μM-3 nM) SMCs. The mixed lysates and SMCs were then loaded into standard-treated Monolith™ capillaries and the fluorescence of the samples was measured by the Monolith NT.115 instrument at 60% MST power. Binding curves of WASp with SMC #6 (FIG. 3A), SMC #30 (FIG. 3B), SMC #33 (FIG. 3C), SMC #34 (FIG. 3D) and Y-27632 (FIG. 3E) or of N-WASp (FIG. 3F) or WAVE2 (FIG. 3G) with SMC #34 were generated by the NanoTemper Analysis 2.231 software. Normalized fluorescence (hot fluorescence/initial fluorescence) is plotted as a function of SMC concentration. […]
YFP-tagged WASp was obtained from cell lysates of Human Embryonic Kidney (HEK) 293T, transiently transfected with YFP-WASp/WAVE2/N-WASp by DNA-calcium phosphate co-precipitation as previously described (Reicher et al, 2012). […] After loading into the instrument (Monolith NT.115, NanoTemper), the samples were measured by standard protocols at 60% MST power. […] KD values were determined using the NanoTemper analysis software (NT Analysis 1.5.37 or 2.2.31).
Following this in silico screening, the inventors identified eight SMCs (#6, #23, #24, #25, #30, #32, #33, #34, see Table 1). […] The SMCs that specifically bind the degradation pocket of WASp were further evaluated by the inventors.

T1 sequence (O43516 whole entry partner, one chain of several): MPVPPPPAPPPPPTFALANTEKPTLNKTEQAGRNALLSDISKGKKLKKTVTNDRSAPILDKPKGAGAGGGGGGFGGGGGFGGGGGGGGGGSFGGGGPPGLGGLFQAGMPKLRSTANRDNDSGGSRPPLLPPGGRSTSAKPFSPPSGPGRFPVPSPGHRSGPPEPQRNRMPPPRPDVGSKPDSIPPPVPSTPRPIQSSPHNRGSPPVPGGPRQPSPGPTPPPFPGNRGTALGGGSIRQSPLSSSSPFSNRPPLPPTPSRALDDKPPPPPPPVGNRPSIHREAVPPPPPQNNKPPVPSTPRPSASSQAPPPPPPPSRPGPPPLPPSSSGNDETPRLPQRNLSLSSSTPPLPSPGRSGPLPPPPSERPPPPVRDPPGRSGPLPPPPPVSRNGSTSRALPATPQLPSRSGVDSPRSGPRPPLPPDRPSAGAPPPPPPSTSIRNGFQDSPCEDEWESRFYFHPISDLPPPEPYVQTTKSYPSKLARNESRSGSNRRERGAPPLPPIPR

SMILES | average FRET efficiency (WIP-WASp interaction) [%] | intra-cellular calcium concentration in activated platelets (platelets) | lymphocyte activation (CD69, activated LFA-1) (PBMCs) | mean cell displacement (Jurkat T cells) | binding to WASp (human WASp)
COC(=O)c1ccc2c(=O)n(Cc3ccc(C(=O)NC4CCCC4)cc3)c(=S)[nH]c2c1 [SMC #30, 3-(4-Cyclopentylcarbamoyl-benzyl)-4-oxo-2-thioxo-1,2,3,4-tetrahydro-quinazoline-7-carboxylic acid methyl ester] | 24.4±1.4 | dramatically enhanced | upregulation of lymphocyte activation | 41.07±4.69 | 
C[C@@H](N)[C@H]1CC[C@H](C(=O)Nc2ccncc2)CC1 [Y-27632] |  |  |  |  | did not show binding
